Laboratory results published in patent publication US20200338042A1, “USE OF DAPHNETIN IN TREATMENT OF AGE-RELATED COGNITIVE DECLINE” (XI'AN JIAOTONG UNIVERSITY, priority 2019, published 2020).

Tests used:
Assay type in all cases: in vivo
APP/PS1 transgenic mice = test: Morris water maze experiment in APP/PS1 transgenic mice; details: for path length for finding the platform in water maze: FIG. 1B
Text: (§1) APP/PS1 transgenic mouse model as the Alzheimer's disease transgenic mouse model was used in the experiments. The APP/PS1 double-transgenic mice overexpressing human Aβ precursor protein (APP) and presenilin 1 (PS1) in the brains can simulate typical pathological and neurological symptoms, such as Aβ deposition and cognitive function degeneration, of human AD.
A water maze experiment was used to observe the effect of daphnetin for improving the cognitive function of the mice.
The 3-month-old APP/PS1 transgenic mice and control mice were purchased from the Model Animal Center of Nanjing University. All mice were fed in an environment with a temperature from 23° C. to 25° C., a humidity of 60%, and a 12 h/12 h day/night light cycles. Mice had free access to food and water during the experiment.
After adapting to the feeding environment, the experimental mice were divided into four groups: 1) a group of wild type (WT) mice to which double-distilled water (ddH2O) was daily administered intragastrically (Group WT+ddH2O), the number (n) of the mice is 11 (n=11); 2) a group of wild type mice to which daphnetin was daily administered intragastrically at 100 mg/kg/day (Group WT+Daphnetin), n=12; 3) a group of APP/PS1 mice to which ddH2O was daily administered intragastrically (Group AD+ddH2O), n=15; 4) a group of APP/PS1 mice to which daphnetin was daily administered intragastrically at 100 mg/kg/day (Group AD+Daphnetin), n=14. The entire experiment was lasted for 12 months.
The daily intragastric administrations of daphnetin or ddH2O were lasting for 9 months to corresponding groups of mice before the water maze experiment.
Morris water maze experiment is a classic way to test spatial learning and memory abilities in mice. The experiment was conducted in a round swimming pool with a diameter of 120 cm, divided into four quadrants I, II, III, and IV. A small round platform with a diameter of 7.5 cm was placed in the center the quadrant IV, and submerged 1 cm below the water surface. Four different-shaped markers as visual cues were placed corresponding to the four quadrants on the curtain support around the swimming pool. During the experiment, the water temperature was kept at 25° C., the surroundings were kept quiet, and the swimming pool was isolated from the external environment by the curtain. Each mouse was allowed to swim freely in the swimming pool for 60 seconds (s) on the day before the formal experiment to adapt to the swimming environment. […] The camera placed on the top of the pool recorded the paths of the mice finding the hidden platform in the swimming pool. […] The times and distances that the mice travels to the platform recorded by the camera video tracking system were used to analyze the learning and memory of the mice. […]

Aβ42 = test: ELISA detection of soluble Aβ42 in cerebral cortex tissues of APP/PS1 mice; details: Group AD+Daphnetin (APP/PS1 mice, 100 mg/kg/day intragastrically) compared to Group AD+ddH2O; one week after water maze; FIG. 2B
Text: as §1
(§2) The contents of Aβ40 and Aβ42 in the brain were detected by the enzyme-linked immunosorbent assay (ELISA) method to observe the effect of daphnetin for ameliorating abnormal protein deposition of the mice.
(§3) Daphnetin was purchased from Nanjing Puyi Biotechnology Co., Ltd.; Aβ40 and […] ELISA detection kits were purchased from Invitrogen Corporation. […]
(§4) Aβ plaque is a significant pathological feature of Alzheimer's disease. As Aβ40 and Aβ42 are most common in the process of producing Aβ, the contents of soluble Aβ40 and Aβ42 in the cerebral cortex tissues were detected by the ELISA method.
(§5) First, the cortex tissue was homogenized using a guanidine salt buffer (5 mol/L guanidine hydrochloride/50 mmol Tris HCl), and the tissue homogenate was centrifuged at 4° C. for 10 minutes at 10,000 g. […] The absorbance (OD450) at a wavelength of 450 nm was measured by a FlexStage3 microplate reader. Protein quantification was performed by using BCA method for ELISA protein calibration. […]

Aβ40 = test: ELISA detection of soluble Aβ40 in cerebral cortex tissues of APP/PS1 mice; details: Group AD+Daphnetin (APP/PS1 mice, 100 mg/kg/day intragastrically) compared to Group AD+ddH2O; one week after water maze; FIG. 2A
Text: as §1, §2, §3, §4, §5

**Q.** For O=c1ccc2ccc(O)c(O)c2o1 [Daphnetin, 7,8-dihydroxycoumarin], which “AUC of swimming time (escape latency) in water maze, Group AD+ddH2O compared to Group AD+Daphnetin” value (APP/PS1 transgenic mice; 5-day training, worded as AD+ddH2O relative to AD+Daphnetin (100 mg/kg/day intragastrically, 9 months), i.e. lower AUC with daphnetin, FIG. 1C) is on record?
**A.** increased significantly

**Q.** What about the “path length for finding the platform in water maze” value (APP/PS1 transgenic mice; day 4 of training, Group AD+Daphnetin (APP/PS1 mice, 100 mg/kg/day intragastrically, 9 months) compared to Group AD+ddH2O) of the same compound?
**A.** significant shortened

**Q.** What about the “escape latency in water maze (time to find the escape platform)” value (APP/PS1 transgenic mice; day 5 of training, Group AD+Daphnetin (APP/PS1 mice, 100 mg/kg/day intragastrically, 9 months) compared to Group AD+ddH2O, FIG. 1A) of the same compound?
**A.** significantly shortened

**Q.** What about the “path length for finding the platform in water maze” value (APP/PS1 transgenic mice; day 5 of training, Group AD+Daphnetin (APP/PS1 mice, 100 mg/kg/day intragastrically, 9 months) compared to Group AD+ddH2O) of the same compound?
**A.** significant shortened

**Q.** And the “level of Aβ42 in the cerebral cortex tissues” value (Aβ42)?
**A.** significantly reduced

**Q.** What about the “level of Aβ40 in the cerebral cortex tissues” value (Aβ40) of the same compound?
**A.** significantly reduced
